Some test systems named below: HL-60(TB) leukemia; OVCAR-4 ovarian; LOX IMVI melanoma; HOP-92 NSCLC; 786-0 renal; CAKI-1 renal; SK-OV-3 ovarian; SR leukemia; KM12 colon; SF-539 CNS.
What all share (assay): NCI anticancer screen, dose series, 48 h

Values joined by “and” are separate entries in the source; they are usually repeats but may differ in a detail not shown here. Identical values can stand only once.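 Method: 48-hour compound exposure of cells in 96-well plates, five concentrations, linear interpolation of endpoints. GI50: concentration for 50% inhibition of growth. TGI denotes the concentration required for complete inhibition of growth.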

As for `Cc1[nH]c2ccccc2c1-c1cc(-c2cc(-c3c(C)[nH]c4ccccc34)nc(N)n2)nc(N)n1`, the TGI with HL-60(TB) leukemia, with OVCAR-4 ovarian, with LOX IMVI melanoma, in the assay with HOP-92 NSCLC, in the assay on 786-0 renal and in the assay on CAKI-1 renal was over 100 µM each time. Further, the TGI in the assay with SK-OV-3 ovarian, with SR leukemia, with KM12 colon and with SF-539 CNS was over 100 µM in each case.

`O=c1c(O)cccc2cc(O)c(O)c(O)c12`: the GI50 in the assay with HL-60(TB) leukemia is 21.9 µM; with LOX IMVI melanoma, 13.2 µM; in the assay with HOP-92 NSCLC, 19.8 µM; with 786-0 renal, 62.1 µM; in the assay on CAKI-1 renal, 14.3 µM; in the assay on SK-OV-3 ovarian it was over 100 µM. For the same compound, the figures for the GI50 in the assay with SR leukemia, with KM12 colon and with SF-539 CNS were 3.76 µM, 26.9 µM and 5.01 µM, respectively. Moreover, the TGI in the assay on HL-60(TB) leukemia was 77.9 µM; in the assay with LOX IMVI melanoma, over 100 µM; in the assay with HOP-92 NSCLC, over 100 µM; with 786-0 renal it was over 100 µM; in the assay on CAKI-1 renal it was over 100 µM; in the assay with SK-OV-3 ovarian, over 100 µM. Moreover, the TGI with SR leukemia, in the assay with KM12 colon and in the assay with SF-539 CNS was over 100 µM each time.

For `COc1ccc(-c2nc(C(=O)c3ccccc3)n(CC(=O)c3ccccc3)c2-c2ccc(OC)cc2)cc1`, the GI50 in the assay with HL-60(TB) leukemia is over 100 µM; in the assay with OVCAR-4 ovarian it was over 100 µM; in the assay with LOX IMVI melanoma, over 100 µM; in the assay on HOP-92 NSCLC, 12.4 µM; with 786-0 renal, over 100 µM; in the assay on CAKI-1 renal it was over 100 µM. Moreover, the GI50 in the assay on SK-OV-3 ovarian, with SR leukemia, in the assay with KM12 colon and with SF-539 CNS was over 100 µM each time. The TGI in the assay on HL-60(TB) leukemia, with OVCAR-4 ovarian, with LOX IMVI melanoma, with HOP-92 NSCLC, with 786-0 renal and with CAKI-1 renal was over 100 µM each time. Also, the TGI in the assay with SK-OV-3 ovarian, with SR leukemia, in the assay on KM12 colon and in the assay on SF-539 CNS was over 100 µM each time.

In the case of `CCOC(=O)C(=O)Nc1ccc(Cl)cc1C`, the TGI in the assay on HL-60(TB) leukemia, in the assay with OVCAR-4 ovarian, in the assay with LOX IMVI melanoma, in the assay on HOP-92 NSCLC, in the assay with 786-0 renal and in the assay with CAKI-1 renal was over 100 µM each time. Moreover, the TGI with SK-OV-3 ovarian, in the assay on SR leukemia, with KM12 colon and in the assay with SF-539 CNS was over 100 µM in each case.

As for `Nc1ncnc2c1c(-c1cccc(OCc3ccccc3)c1)cn2C1CC(CN2CCC2)C1` (configuration not stated), the GI50 with HL-60(TB) leukemia is 0.112 µM and 0.0969 µM; with OVCAR-4 ovarian, 3.49 µM; in the assay on LOX IMVI melanoma it was 1.51 µM and 1.41 µM; with HOP-92 NSCLC, 0.0457 µM and 0.266 µM; in the assay on 786-0 renal, 1.92 µM and 2.14 µM; in the assay with CAKI-1 renal it was 2.56 µM and 2.44 µM. Besides, the GI50 was 3.99 µM in the assay with SK-OV-3 ovarian; 2.22 µM and 1.69 µM in the assay with SR leukemia; 2.72 µM and 3.07 µM in the assay on KM12 colon; 1.65 µM and 1.95 µM with SF-539 CNS. Besides, the TGI in the assay with HL-60(TB) leukemia was 2.08 µM and 2.04 µM; in the assay with OVCAR-4 ovarian, 15.3 µM and > 10 µM; in the assay on LOX IMVI melanoma, 3.02 µM and 3 µM; in the assay on HOP-92 NSCLC, 0.837 µM and 3.82 µM; in the assay on 786-0 renal, 3.98 µM and 4.83 µM; with CAKI-1 renal, 11.4 µM and > 10 µM. Moreover, the TGI in the assay on SK-OV-3 ovarian is 11.3 µM and > 10 µM; in the assay with SR leukemia, 6.08 µM and 4.18 µM; in the assay with KM12 colon it was 8.97 µM and > 10 µM; in the assay on SF-539 CNS, 3.18 µM and 5.16 µM.

For `COc1cc(Nc2ncc(F)c(Nc3ccc4c(n3)NC(=O)C(C)(C)O4)n2)cc(OC)c1OC`, the GI50 in the assay on HL-60(TB) leukemia was over 10 µM; in the assay with OVCAR-4 ovarian it was over 100 µM; in the assay with LOX IMVI melanoma it was 1.57 µM; with HOP-92 NSCLC, 0.302 µM; with 786-0 renal it was 1.03 µM and 1.27 µM; in the assay on CAKI-1 renal, 0.618 µM. In addition, the GI50 in the assay with SR leukemia was 2.71 µM and > 10 µM; in the assay with KM12 colon, 0.366 µM and 0.527 µM; in the assay on SF-539 CNS, 0.916 µM. In addition, the TGI was over 10 µM in the assay on HL-60(TB) leukemia; over 100 µM with OVCAR-4 ovarian; over 10 µM with LOX IMVI melanoma; 4.85 µM in the assay on HOP-92 NSCLC; over 100 µM in the assay on 786-0 renal; over 10 µM with CAKI-1 renal. Moreover, the TGI is over 100 µM in the assay on SK-OV-3 ovarian, over 100 µM in the assay on SR leukemia, over 100 µM in the assay on KM12 colon and 9.38 µM in the assay with SF-539 CNS.

Regarding `Clc1ccc(C2=Nn3c(nnc3-c3cc(Cl)cc(Cl)c3Cl)SC2)cc1`, the GI50 is 7.26 µM with HL-60(TB) leukemia; over 100 µM with OVCAR-4 ovarian; 27.1 µM in the assay on LOX IMVI melanoma; 19.6 µM in the assay with HOP-92 NSCLC; 17.1 µM with 786-0 renal; 14.6 µM in the assay on CAKI-1 renal. Besides, the GI50 with SK-OV-3 ovarian was 17.6 µM; in the assay on SR leukemia, 3.1 µM; in the assay on KM12 colon, 9.15 µM; in the assay with SF-539 CNS, 20.1 µM. Besides, the TGI with HL-60(TB) leukemia was 30.7 µM; in the assay with OVCAR-4 ovarian it was over 100 µM; in the assay with LOX IMVI melanoma, over 100 µM; in the assay on HOP-92 NSCLC, 65 µM; with 786-0 renal, 38 µM; with CAKI-1 renal it was 31.3 µM. The TGI in the assay on SK-OV-3 ovarian is 44.5 µM; in the assay on SR leukemia it was 7.34 µM; in the assay with KM12 colon, over 100 µM; with SF-539 CNS, 48.3 µM.

As to `N#CC(C#N)N=Nc1ccc(Br)cc1`, the GI50 with HL-60(TB) leukemia was 1.7 µM; in the assay with OVCAR-4 ovarian it was 2 µM; with LOX IMVI melanoma it was 3.75 µM; in the assay on HOP-92 NSCLC, 0.249 µM; in the assay on 786-0 renal, 3.79 µM; in the assay on CAKI-1 renal, 2.05 µM. Moreover, the GI50 in the assay with SK-OV-3 ovarian is 22.3 µM; with SR leukemia, 3.22 µM; with KM12 colon, 9.65 µM; in the assay on SF-539 CNS it was 3.57 µM. Also, the TGI in the assay on HL-60(TB) leukemia was 4.38 µM; in the assay on OVCAR-4 ovarian it was 37.9 µM; in the assay on LOX IMVI melanoma, 16.5 µM; in the assay with HOP-92 NSCLC it was 1.84 µM; with 786-0 renal, 14.1 µM; with CAKI-1 renal, 12.1 µM. Also, the TGI in the assay on SK-OV-3 ovarian was over 100 µM; in the assay with SR leukemia, over 49.8 µM; in the assay with KM12 colon it was over 100 µM; in the assay with SF-539 CNS, 18.3 µM.

Values taken from PubChem BioAssay (NCI).
